Measurements published in patent publication US7932289B2, “Remedy for diabetes” (Takeda Pharmaceutical Company Limited, priority 2004, dated 2011).

Tested on: type 2 diabetic rats with sulfonylurea secondary failure (N-STZ-1.5 rat)
Conditions: for Increment of plasma insulin level: 0 to 10 minutes after oral glucose loading (1 g/kg); for Increment of plasma insulin level / Increment of plasma glucose level: drug 10 mg/kg orally 30 min before glucose, male N-STZ-1.5 rats made glibenclamide-refractory, mean, n=6; for Increment of plasma glucose level: 0 to 60 minutes after oral glucose loading (1 g/kg); for plasma glucose level lowering effect / plasma insulin level increasing effect: in words, type 2 diabetic rats with sulfonylurea secondary failure, 10 mg/kg orally; for plasma glucose level lowering effect: summary of Table 1; for plasma insulin level increasing effect: summary of Table 2
Description: Streptozocin (STZ) (120 mg/kg body weight) was administered to a 1.5-day-old male WKY rat to prepare a type 2 diabetes model N-STZ-1.5 rat.
Glibenclamide (10 mg/kg body weight/day) was orally administered to the N-STZ-1.5 rats (male, 18 rats) every day for 4 consecutive weeks.
At 30 min after the administration, 1 g/kg body weight of a glucose solution was orally administered to each rat, and blood samples were collected from the rat tail vein before administration of the glucose solution and at 10, 30, 60 and 120 minutes after administration of the glucose solution, and the plasma glucose level and plasma insulin level were measured.
The plasma glucose level was measured using an L type Wako Glu2 (trade name, Wako Pure Chemical Industries, Ltd.) according to an enzyme method, and the plasma insulin level was measured using a SHIONORIA insulin kit (trade name, Shionogi & Co., Ltd.) by a radioimmunoassay.
In the Tables, the values show mean values (n=6).

| Compound | Increment of plasma insulin level | Increment of plasma glucose level | plasma glucose level lowering effect | plasma insulin level increasing effect |
| --- | --- | --- | --- | --- |
| Cc1cccc(C)c1-c1cccc(COc2ccc(CCC(=O)O)cc2)c1 [Compound A, 4-([2′,6′-dimethyl-1,1′-biphenyl]-3-ylmethoxy)benzenepropanoic acid] | 42.76 μU/ml | 107.12 mg/dL | superior plasma glucose level lowering effect | superior plasma insulin level increasing effect |
| COc1ccc(Cl)cc1C(=O)NCCc1ccc(S(=O)(=O)NC(=O)NC2CCCCC2)cc1 [glibenclamide] | 29.37 μU/ml | 178.40 mg/dL | failed to show a plasma glucose level lowering effect | hardly showed a plasma insulin level increasing effect |
